Reference: patent US8415469B2, “Compounds and methods for kinase modulation, and indications therefor” (Plexxikon Inc., priority 2005, dated 2013)

Tests used:
Type in all cases: biochemical
Kdr = molecular target: T1, Kdr (Homo sapiens, UniProt P35968); assay: Z'-Lyte FRET kinase assay (Invitrogen), Kdr; conditions: read-out: IC50, activity toward kinase Kdr
T1 construct: purchased Invitrogen (assay run by Invitrogen)

B-Raf V600E = molecular target: T2, B-Raf V600E (Homo sapiens, UniProt P15056, V600E); assay: AlphaScreen kinase assay, B-Raf V600E; conditions: read-out: IC50, activity toward kinase B-Raf V600E
T2 construct: P4254. pFastBacBD-CDC37 BRAF D437-K722-X, V600E; His6 with pFastBac HT leader (TEV site) (N); made in house; host or cells: Sf9 (baculovirus; chaperone CDC37 co-expressed)
T2 sequence (P15056 with tags, fused parts or gaps V600E): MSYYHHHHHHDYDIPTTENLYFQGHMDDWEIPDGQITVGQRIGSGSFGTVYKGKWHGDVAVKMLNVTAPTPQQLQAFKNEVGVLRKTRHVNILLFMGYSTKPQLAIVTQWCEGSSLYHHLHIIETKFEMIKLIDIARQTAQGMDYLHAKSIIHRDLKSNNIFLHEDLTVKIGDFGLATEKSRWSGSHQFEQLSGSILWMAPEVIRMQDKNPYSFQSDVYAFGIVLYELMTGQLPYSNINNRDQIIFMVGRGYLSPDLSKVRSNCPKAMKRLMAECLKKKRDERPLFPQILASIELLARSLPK

Ret = molecular target: T3, Ret (Homo sapiens, UniProt P07949); assay: AlphaScreen kinase assay, Ret; conditions: read-out: IC50, activity toward kinase Ret
T3 construct: P1378.pET-SF BI-PTP RET H661-R1012 HIS; made in house
T3 sequence (P07949 with tags, fused parts or gaps): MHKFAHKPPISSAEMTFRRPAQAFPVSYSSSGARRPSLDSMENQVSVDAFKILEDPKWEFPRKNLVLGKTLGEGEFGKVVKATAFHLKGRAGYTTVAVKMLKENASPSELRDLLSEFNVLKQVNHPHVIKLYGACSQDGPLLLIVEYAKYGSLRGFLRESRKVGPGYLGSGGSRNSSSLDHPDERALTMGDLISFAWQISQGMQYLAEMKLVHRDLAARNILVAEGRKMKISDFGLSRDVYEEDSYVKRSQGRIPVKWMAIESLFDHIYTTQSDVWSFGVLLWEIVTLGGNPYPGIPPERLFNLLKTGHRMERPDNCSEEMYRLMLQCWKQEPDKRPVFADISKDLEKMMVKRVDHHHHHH

FGFR1 = molecular target: T4, FGFR1 (Homo sapiens, UniProt P11362, C488A/C584S); assay: AlphaScreen kinase assay, FGFR1; conditions: read-out: IC50, activity toward kinase FGFR
T4 construct: P1351.pET N6 BI-PTP FGFR A458-E765-X C488A, C584S; made in house; host or cells: E. coli (PTP1B co-expressed)
T4 sequence (P11362 458-765 C488A/C584S): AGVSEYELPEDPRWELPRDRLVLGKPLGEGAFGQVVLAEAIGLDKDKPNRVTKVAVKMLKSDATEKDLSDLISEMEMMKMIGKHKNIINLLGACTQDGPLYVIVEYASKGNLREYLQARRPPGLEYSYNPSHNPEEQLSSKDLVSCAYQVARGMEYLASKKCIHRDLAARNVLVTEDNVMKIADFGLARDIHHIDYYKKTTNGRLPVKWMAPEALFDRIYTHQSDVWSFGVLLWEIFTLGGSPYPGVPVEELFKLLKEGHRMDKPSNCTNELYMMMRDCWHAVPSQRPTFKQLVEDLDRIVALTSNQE

Jak3 = molecular target: T5, Jak3 (Homo sapiens, UniProt P52333); assay: AlphaScreen kinase assay, Jak3; conditions: read-out: IC50, activity toward kinase Jak3
T5 sequence (P52333 1-1124): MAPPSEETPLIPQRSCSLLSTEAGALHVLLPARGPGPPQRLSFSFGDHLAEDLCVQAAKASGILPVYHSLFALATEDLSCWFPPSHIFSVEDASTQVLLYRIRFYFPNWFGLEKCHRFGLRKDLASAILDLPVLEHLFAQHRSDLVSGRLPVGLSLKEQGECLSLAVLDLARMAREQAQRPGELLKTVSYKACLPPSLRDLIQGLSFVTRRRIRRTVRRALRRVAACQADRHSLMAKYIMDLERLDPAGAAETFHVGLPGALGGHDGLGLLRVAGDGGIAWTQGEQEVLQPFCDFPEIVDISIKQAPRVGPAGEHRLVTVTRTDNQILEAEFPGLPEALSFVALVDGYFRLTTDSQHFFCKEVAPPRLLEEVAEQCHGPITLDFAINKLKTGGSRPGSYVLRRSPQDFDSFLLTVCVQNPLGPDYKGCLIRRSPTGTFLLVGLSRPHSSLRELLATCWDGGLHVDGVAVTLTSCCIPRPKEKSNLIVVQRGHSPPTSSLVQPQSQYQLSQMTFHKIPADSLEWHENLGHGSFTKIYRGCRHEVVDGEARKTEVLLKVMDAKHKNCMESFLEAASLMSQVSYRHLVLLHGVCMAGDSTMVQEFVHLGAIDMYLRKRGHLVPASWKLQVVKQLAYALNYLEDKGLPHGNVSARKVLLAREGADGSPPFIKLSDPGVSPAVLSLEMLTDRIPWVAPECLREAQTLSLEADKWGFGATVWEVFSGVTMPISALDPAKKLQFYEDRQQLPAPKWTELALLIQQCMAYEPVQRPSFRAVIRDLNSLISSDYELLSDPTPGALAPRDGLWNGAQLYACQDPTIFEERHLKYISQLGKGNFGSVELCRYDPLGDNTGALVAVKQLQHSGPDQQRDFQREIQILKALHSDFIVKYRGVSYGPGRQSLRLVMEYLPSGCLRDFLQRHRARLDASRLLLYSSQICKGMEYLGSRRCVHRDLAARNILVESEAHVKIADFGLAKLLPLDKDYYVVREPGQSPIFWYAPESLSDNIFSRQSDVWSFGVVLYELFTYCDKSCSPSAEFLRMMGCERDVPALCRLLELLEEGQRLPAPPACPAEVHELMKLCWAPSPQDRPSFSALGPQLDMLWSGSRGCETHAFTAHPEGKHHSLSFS
From the text: AlphaScreen assay was used to screen additional kinases. The assay is similarly dependent on the phosphorylation of a peptide substrate. In this assay, an antibody that recognizes phosphorylated substrate is bound to an acceptor bead. The peptide substrate is attached to biotin, which binds to a donor head that contains streptavidin. Thus phosphorylated substrate is bound by antibody and streptavidin, bringing the donor and acceptor heads into close proximity when kinase is not inhibited. The donor produces singlet oxygen which results in emission from the acceptor when they are in close proximity. Conversely, when kinase is inhibited, the donor and acceptor beads are not associated and the emission from the acceptor is reduced.
AlphaScreen assays were done using compounds dissolved in DMSO to a concentration of 20 mM. The compounds were diluted accordingly to the desired final concentrations in each sample well, using 1:3 serial dilution for a total of 8 concentration points.

Btk = molecular target: T6, Btk (Homo sapiens, UniProt Q06187); assay: Z'-Lyte FRET kinase assay (Invitrogen), Btk; conditions: read-out: IC50, activity toward kinase Btk
T6 construct: purchased Invitrogen (assay run by Invitrogen)
T6 sequence (Q06187 whole entry): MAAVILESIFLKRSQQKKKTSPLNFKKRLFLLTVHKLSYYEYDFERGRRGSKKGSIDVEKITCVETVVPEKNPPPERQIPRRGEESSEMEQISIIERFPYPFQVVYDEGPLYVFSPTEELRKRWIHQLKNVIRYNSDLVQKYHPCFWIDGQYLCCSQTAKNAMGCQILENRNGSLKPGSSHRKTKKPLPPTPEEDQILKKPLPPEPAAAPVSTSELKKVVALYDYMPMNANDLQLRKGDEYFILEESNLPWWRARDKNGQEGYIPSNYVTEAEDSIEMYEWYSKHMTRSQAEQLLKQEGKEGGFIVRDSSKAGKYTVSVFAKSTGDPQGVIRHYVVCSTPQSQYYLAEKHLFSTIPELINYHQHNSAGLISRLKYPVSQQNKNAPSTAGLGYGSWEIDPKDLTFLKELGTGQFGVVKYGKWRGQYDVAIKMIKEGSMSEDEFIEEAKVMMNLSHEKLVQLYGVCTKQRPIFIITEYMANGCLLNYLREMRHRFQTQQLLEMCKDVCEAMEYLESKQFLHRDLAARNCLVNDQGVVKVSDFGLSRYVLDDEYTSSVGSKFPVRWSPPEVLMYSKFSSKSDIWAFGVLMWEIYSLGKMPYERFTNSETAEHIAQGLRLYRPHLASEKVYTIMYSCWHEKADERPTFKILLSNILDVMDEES

MAP2K1 = molecular target: T7, MAP2K1 (Homo sapiens, UniProt Q02750); assay: Z'-Lyte FRET kinase assay (Invitrogen), MAP2K1; conditions: read-out: IC50, activity toward kinase MAP2K1
T7 construct: purchased Invitrogen (assay run by Invitrogen)
T7 sequence (Q02750 whole entry): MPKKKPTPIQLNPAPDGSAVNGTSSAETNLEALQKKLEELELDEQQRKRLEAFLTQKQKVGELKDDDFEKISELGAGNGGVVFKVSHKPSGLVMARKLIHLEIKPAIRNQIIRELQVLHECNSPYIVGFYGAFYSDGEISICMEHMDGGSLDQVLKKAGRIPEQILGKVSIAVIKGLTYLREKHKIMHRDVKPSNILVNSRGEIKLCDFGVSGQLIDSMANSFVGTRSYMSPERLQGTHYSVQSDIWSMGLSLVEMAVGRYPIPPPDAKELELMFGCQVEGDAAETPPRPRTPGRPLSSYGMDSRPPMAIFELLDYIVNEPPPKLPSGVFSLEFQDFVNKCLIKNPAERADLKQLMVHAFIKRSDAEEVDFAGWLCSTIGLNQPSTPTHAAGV

Jnk3 = molecular target: T8, Jnk3 (Homo sapiens, UniProt P53779); assay: AlphaScreen kinase assay, Jnk3; conditions: read-out: IC50, activity toward kinase Jnk3
T8 construct: purchased Upstate Biotechnology

Jnk2 = molecular target: T9, Jnk2 (Homo sapiens, UniProt P45984); assay: AlphaScreen kinase assay, Jnk2; conditions: read-out: IC50, activity toward kinase Jnk2
T9 construct: purchased Roche Protein Expression Group (Indianapolis, IN)
Method in brief: (§1)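 Inhibition reads as diminished acceptor emission, since unphosphorylated peptide fails to bridge antibody acceptor beads and streptavidin donor beads. Titration: eight points, 1:3 steps, stocks at 20 mM in DMSO.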

PKC theta = molecular target: T10, PKC theta (Homo sapiens, UniProt Q04759); assay: Z'-Lyte FRET kinase assay (Invitrogen), PKC theta; conditions: read-out: IC50, activity toward kinase PKC theta
T10 construct: purchased Invitrogen (Carlsbad, Calif.), screening service
From the text: The effect of potential modulators of kinase activity can be measured in a variety of different assays known in the art. For example, direct radiometric, indirect FRET or AlphaScreen assays may be used to assess the level of phosphorylation of a substrate in the presence of test compounds in order to determine the inhibitory affect of the compound on the kinase. Invitrogen (Carlsbad, Calif.) uses a FRET based assay for Btk, EGFR, EphB2, Flt3, lrak4, Kdr, MAP2K1, MAPKAPK2, PDGFRB, PKC theta, Stk6 and Yes. For these assays, compounds of the invention were screened by Invitrogen using Z′-Lyte™ kinase assay.
Briefly, the Invitrogen kinase assay involves use of a specific peptide substrate optimized for each kinase, containing a fluorophore at each end that make up the FRET pair. The peptide sensitivity to proteolytic cleavage depends on phosphorylation of the peptide. Non-phosphorylated peptide is cleaved by a protease while peptide phosphorylated by the kinase is not cleaved. Cleavage of the peptide disrupts the FRET between the donor (coumarin) and acceptor (fluorescein) fluorophores, resulting in an increase in the ratio of donor emission to acceptor emission. The emission ratio of coumarin to fluorescein is used to assess the reaction progress. The extent of phosphorylation is determined from the emission ratio, which is low when the kinase is active (phosphorylated peptide is not cleaved, FRET pair connected) or higher for inhibited kinase (non-phosphorylated peptide is cleaved, FRET pair separated). Thus, the assay involves a kinase reaction in the presence of varying concentrations of a given compound, a development reaction with site specific protease, and detection of the fluorescent emission ratio of coumarin and fluorscein. […] Reaction conditions for each kinase are determined to provide optimal reaction times, incubation temperature, kinase and ATP concentrations. Test samples are made up in 1× kinase buffer (50 mM HEPES pH 7.5, 50 mM MgCl2, 5 mM EGTA, 0.05% BRIJ-35) and compound at desired concentration prepared in DMSO such that the final DMSO is 1%. […] Typically, assay plates are prepared to 10 μl final volume per sample, adding 2.5 μl of compound at 4× the desired concentration in 4% DMSO (serial dilution of compound provides concentration curve), 5 μl of the desired kinase mixed with Z′-LYTE™ peptide substrate (2× in 2× kinase buffer, final peptide at 2 μM), and 2.5 μl of 4×ATP solution. All kinase except for MAP2K1 were at 10 μM ATP in the kinase reaction, while MAP2K1 was at 100 μM. Samples are mixed and the kinase reaction is incubated 1 hour at room temperature, after which 5 μl of development solution is added and mixed. After incubation for another 1 hour at room temperature, 5 μl of stop reagent is added to each sample and mixed. The fluorescence signals are measured to determine the emission ratio.

Stk6 = molecular target: T11, Stk6 (Homo sapiens, UniProt O14965); assay: Z'-Lyte FRET kinase assay (Invitrogen), Stk6; conditions: read-out: IC50, activity toward kinase Stk6
T11 construct: purchased Invitrogen (Carlsbad, Calif.), screening service
T11 sequence (O14965 1-403): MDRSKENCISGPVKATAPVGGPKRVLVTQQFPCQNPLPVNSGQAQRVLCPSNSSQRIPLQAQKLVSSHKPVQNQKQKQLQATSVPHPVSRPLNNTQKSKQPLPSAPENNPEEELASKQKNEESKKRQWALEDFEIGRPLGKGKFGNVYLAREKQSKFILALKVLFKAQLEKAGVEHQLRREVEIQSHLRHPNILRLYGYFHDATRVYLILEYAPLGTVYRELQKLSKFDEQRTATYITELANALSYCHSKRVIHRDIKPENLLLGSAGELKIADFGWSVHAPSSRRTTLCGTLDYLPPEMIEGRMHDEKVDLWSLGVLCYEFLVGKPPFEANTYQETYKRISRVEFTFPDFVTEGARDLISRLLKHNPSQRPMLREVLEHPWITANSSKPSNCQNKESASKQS
From the text: For example, direct radiometric, indirect FRET or AlphaScreen assays may be used to assess the level of phosphorylation of a substrate in the presence of test compounds in order to determine the inhibitory affect of the compound on the kinase. […] For these assays, compounds of the invention were screened by Invitrogen using Z′-Lyte™ kinase assay.
Briefly, the Invitrogen kinase assay involves use of a specific peptide substrate optimized for each kinase, containing a fluorophore at each end that make up the FRET pair. The peptide sensitivity to proteolytic cleavage depends on phosphorylation of the peptide. Non-phosphorylated peptide is cleaved by a protease while peptide phosphorylated by the kinase is not cleaved. Cleavage of the peptide disrupts the FRET between the donor (coumarin) and acceptor (fluorescein) fluorophores, resulting in an increase in the ratio of donor emission to acceptor emission. The emission ratio of coumarin to fluorescein is used to assess the reaction progress. […] Thus, the assay involves a kinase reaction in the presence of varying concentrations of a given compound, a development reaction with site specific protease, and detection of the fluorescent emission ratio of coumarin and fluorscein. […] Reaction conditions for each kinase are determined to provide optimal reaction times, incubation temperature, kinase and ATP concentrations. Test samples are made up in 1× kinase buffer (50 mM HEPES pH 7.5, 50 mM MgCl2, 5 mM EGTA, 0.05% BRIJ-35) and compound at desired concentration prepared in DMSO such that the final DMSO is 1%. […] All kinase except for MAP2K1 were at 10 μM ATP in the kinase reaction, while MAP2K1 was at 100 μM. Samples are mixed and the kinase reaction is incubated 1 hour at room temperature, after which 5 μl of development solution is added and mixed. After incubation for another 1 hour at room temperature, 5 μl of stop reagent is added to each sample and mixed. The fluorescence signals are measured to determine the emission ratio.

Flt4 = molecular target: T12, Flt4 (Homo sapiens, UniProt P35916); assay: AlphaScreen kinase assay, Flt4; conditions: read-out: IC50, activity toward kinase Flt4
T12 construct: purchased ProQinase GmbH (Freiburg, Germany)
T12 sequence (P35916 25-1363): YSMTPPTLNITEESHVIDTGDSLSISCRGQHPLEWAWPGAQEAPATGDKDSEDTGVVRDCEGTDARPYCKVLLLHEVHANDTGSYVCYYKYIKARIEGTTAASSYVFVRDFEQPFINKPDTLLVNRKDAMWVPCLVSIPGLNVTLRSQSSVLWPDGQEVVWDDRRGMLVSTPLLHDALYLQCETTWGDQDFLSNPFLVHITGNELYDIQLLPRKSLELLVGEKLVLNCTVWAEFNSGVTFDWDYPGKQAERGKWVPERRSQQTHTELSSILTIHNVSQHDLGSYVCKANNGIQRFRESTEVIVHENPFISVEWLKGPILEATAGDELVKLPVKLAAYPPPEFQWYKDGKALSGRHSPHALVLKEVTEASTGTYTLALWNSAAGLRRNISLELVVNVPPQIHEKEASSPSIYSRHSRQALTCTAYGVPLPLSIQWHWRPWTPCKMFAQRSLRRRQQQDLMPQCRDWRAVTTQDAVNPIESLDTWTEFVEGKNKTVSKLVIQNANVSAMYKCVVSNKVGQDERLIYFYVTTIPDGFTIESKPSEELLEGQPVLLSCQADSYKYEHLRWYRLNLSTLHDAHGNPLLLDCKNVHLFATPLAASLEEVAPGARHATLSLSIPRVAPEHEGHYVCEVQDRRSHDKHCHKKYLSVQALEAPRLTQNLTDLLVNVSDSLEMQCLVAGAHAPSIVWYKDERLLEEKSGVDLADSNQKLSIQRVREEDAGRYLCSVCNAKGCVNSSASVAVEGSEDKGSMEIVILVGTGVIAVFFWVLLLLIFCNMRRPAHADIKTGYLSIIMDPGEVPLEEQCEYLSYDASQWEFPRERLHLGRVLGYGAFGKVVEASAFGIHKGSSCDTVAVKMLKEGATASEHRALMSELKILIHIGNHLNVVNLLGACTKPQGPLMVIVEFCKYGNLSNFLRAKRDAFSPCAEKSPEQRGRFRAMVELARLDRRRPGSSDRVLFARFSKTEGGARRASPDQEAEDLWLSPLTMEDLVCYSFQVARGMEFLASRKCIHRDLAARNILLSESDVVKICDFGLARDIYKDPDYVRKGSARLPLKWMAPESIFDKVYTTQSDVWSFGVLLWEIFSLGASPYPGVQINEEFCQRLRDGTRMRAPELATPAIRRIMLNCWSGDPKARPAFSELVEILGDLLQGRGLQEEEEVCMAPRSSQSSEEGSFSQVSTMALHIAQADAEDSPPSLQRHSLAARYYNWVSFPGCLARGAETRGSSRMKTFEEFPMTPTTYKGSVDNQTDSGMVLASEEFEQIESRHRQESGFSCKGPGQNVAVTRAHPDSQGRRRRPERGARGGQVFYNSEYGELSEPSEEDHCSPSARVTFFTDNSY
Method in brief: as §1

Pyk2 = molecular target: T13, Pyk2 (Homo sapiens, UniProt Q14289); assay: AlphaScreen kinase assay, Pyk2; conditions: read-out: IC50, activity toward kinase Pyk2
T13 construct: purchased Upstate Biotechnology

Yes = molecular target: T14, Yes (Homo sapiens, UniProt P07947); assay: Z'-Lyte FRET kinase assay (Invitrogen), Yes; conditions: read-out: IC50, activity toward kinase Yes
T14 construct: purchased Invitrogen (Carlsbad, Calif.), screening service
T14 sequence (P07947 whole entry): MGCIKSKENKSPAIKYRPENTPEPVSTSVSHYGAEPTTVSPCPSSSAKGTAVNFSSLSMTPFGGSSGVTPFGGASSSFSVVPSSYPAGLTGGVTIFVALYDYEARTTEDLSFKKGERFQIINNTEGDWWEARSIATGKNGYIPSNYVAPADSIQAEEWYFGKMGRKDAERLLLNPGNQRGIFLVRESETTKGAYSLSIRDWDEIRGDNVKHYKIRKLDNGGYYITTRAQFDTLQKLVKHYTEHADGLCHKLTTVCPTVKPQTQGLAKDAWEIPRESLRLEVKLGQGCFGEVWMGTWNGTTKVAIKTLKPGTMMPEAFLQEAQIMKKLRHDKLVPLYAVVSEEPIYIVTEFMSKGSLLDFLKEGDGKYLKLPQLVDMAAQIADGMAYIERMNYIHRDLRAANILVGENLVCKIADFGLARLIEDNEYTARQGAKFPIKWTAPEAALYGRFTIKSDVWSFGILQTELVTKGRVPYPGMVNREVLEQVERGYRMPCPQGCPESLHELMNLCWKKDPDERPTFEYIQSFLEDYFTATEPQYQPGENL
Method in brief: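 Inhibition was inferred from protease cleavage of non-phosphorylated peptide, measured as a coumarin/fluorescein ratio. Kinase reactions used 10 μM ATP for 1 h at room temperature.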

Measured: IC50

T1 sequence (P35968 20-1356): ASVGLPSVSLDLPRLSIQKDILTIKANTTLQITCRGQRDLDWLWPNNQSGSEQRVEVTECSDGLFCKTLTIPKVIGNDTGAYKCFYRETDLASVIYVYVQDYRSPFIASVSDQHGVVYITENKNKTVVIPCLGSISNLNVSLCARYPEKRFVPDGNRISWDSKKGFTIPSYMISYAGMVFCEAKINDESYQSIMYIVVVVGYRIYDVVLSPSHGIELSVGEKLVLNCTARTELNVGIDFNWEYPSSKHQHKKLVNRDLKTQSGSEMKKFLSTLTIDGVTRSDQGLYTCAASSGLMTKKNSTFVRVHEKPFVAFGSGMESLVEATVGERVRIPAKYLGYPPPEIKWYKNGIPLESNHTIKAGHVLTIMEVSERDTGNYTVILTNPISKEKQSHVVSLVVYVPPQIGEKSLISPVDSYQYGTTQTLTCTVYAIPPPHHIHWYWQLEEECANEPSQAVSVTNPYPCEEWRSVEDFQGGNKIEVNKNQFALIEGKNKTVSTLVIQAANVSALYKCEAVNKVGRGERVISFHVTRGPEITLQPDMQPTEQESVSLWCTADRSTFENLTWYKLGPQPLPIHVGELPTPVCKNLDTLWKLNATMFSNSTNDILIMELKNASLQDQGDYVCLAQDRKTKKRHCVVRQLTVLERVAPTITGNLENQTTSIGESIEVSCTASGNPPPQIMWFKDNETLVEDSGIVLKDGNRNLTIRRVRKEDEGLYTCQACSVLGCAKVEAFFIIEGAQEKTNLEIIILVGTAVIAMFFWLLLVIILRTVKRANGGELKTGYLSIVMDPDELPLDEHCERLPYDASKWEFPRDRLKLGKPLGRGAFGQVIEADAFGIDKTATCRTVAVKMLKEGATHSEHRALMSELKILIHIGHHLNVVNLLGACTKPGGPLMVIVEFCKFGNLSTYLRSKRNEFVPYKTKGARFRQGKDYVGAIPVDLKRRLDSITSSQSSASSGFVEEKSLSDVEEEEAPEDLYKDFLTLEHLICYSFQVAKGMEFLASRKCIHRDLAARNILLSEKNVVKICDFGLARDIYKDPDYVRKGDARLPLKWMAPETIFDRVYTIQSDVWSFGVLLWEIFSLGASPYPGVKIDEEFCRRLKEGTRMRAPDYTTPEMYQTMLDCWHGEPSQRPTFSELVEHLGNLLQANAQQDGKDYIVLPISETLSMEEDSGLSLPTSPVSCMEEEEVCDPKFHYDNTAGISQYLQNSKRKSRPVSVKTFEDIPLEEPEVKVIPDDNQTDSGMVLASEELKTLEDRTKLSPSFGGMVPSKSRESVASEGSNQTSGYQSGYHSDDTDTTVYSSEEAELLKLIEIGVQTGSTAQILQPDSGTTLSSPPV

O=C(c1ccccc1F)c1c[nH]c2nccc(-c3ccccc3F)c12 [Compound P-0730]
≤ 10 µM: Kdr | B-Raf V600E | Ret | FGFR1 | Jak3

NC(=O)c1cccc(-c2cnc3[nH]cc(Cc4ccccc4O)c3c2)c1 [Compound P-01385]
≤ 10 µM: Jak3

O=C(O)/C=C/c1cccc(-c2ccnc3[nH]cc(C(=O)c4ccccc4F)c23)c1 [Compound P-0108]
≤ 10 µM: Kdr | B-Raf V600E | Ret | Btk | MAP2K1 | Jak3

COc1ccc(-c2c[nH]c3ncccc23)cc1OC [Compound P-0238]
≤ 10 µM: Jnk3 | Jnk2 | PKC theta

OCc1cccc(-c2ccnc3[nH]cc(Sc4cccc(F)c4)c23)c1 [Compound P-0187]
≤ 10 µM: B-Raf V600E | Stk6 | Jak3

CCCC(=O)Nc1ccc(F)c(C(O)c2c[nH]c3ncc(OC)cc23)c1F (stereo not shown) [Compound P-01367]
≤ 10 µM: Jak3

O=C(c1cc(F)ccc1F)c1c[nH]c2nccc(-c3cc(F)cc(F)c3)c12 [Compound P-0215]
≤ 10 µM: B-Raf V600E | Ret | FGFR1 | Flt4 | Jak3

O=C(c1cc(F)ccc1F)c1c[nH]c2nccc(-c3ccsc3)c12 [Compound P-0119]
≤ 10 µM: B-Raf V600E | Ret | FGFR1 | Stk6 | Jak3

O=C(O)/C=C/c1cccc(-c2ccnc3[nH]cc(C(=O)c4cc(F)ccc4F)c23)c1 [Compound P-0141]
≤ 10 µM: Kdr | B-Raf V600E | Ret | Jak3

O=C(c1ccccc1F)c1c[nH]c2nccc(-c3cccnc3)c12 [Compound P-0061]
≤ 10 µM: Kdr | Ret | Btk | Stk6 | MAP2K1 | Jak3

CC(C)(C)OC(=O)Nc1ccc(F)c(C(O)c2c[nH]c3ncc(Br)cc23)c1F (stereo not shown) [Compound P-0318, {3-[(5-Bromo-1H-pyrrolo[2,3-b]pyridin-3-yl)-hydroxy-methyl]-2,4-difluoro-phenyl}-carbamic acid tert-butyl ester]
≤ 10 µM: B-Raf V600E | Pyk2 | Jak3

CS(=O)(=O)c1cccc(-c2ccnc3[nH]cc(C(=O)c4ccccc4F)c23)c1 [Compound P-0138]
≤ 10 µM: Ret | Btk | Yes | Jak3
